The source made the active and inactive calls. The calls are words filed in the database; no cut-off is given here.

The record followed here is ChEMBL document CHEMBL6071164, “9,10-Bis[(4-(2-hydroxyethyl)piperazine-1-yl)prop2-yne-1-yl]anthracene: G-Quadruplex Selectivity and Anticancer Activity” (ACS Med Chem Lett, 2024).

The subject of data set [1] is A549. As to the kind of experiment: Cytotoxicity against human A549 cells assessed as reduction in cell viability incubated for 24 hrs by MTT assay. Format: functional, cell-based. Particulars: A549, 24 h. (Tetrazolium assays rely on reduction of a dye to a coloured formazan, in cell work by metabolically active cells.)
Data set [2] deals with PC-9. The data set is described as follows: Cytotoxicity against human PC-9 cells assessed as reduction in cell viability incubated for 24 hrs by MTT assay. Type of data set: functional, cell-based. Particulars: PC-9, 24 h.
Data set [3] relates to NCI-H358. As to the kind of experiment: Cytotoxicity against human NCI-H358 cells assessed as reduction in cell viability incubated for 24 hrs by MTT assay. Type of data set: functional, cell-based. The following applies: NCI-H358, 24 h.
Data set [4] relates to NCI-H460. As to the kind of experiment: Cytotoxicity against human NCI-H460 cells assessed as reduction in cell viability incubated for 24 hrs by MTT assay. Type of data set: functional, cell-based. The following applies: NCI-H460, 24 h.
The subject of data set [5] is NCI-H1975. The data set is described as follows: Cytotoxicity against human NCI-H1975 cells assessed as reduction in cell viability incubated for 24 hrs by MTT assay. Format: functional, cell-based. Particulars: NCI-H1975, 24 h.
For data set [6], the system named is NCI-H1650. The data set is described as follows: Cytotoxicity against human NCI-H1650 cells assessed as reduction in cell viability incubated for 24 hrs by MTT assay. Type of data set: functional, cell-based. The following applies: NCI-H1650, 24 h.
Data set [7] is described as follows: Cytotoxicity against human BEAS-2B cells assessed as reduction in cell viability incubated for 24 hrs by MTT assay. Format: toxicity, cell-based.
Data set [8] has as its system Quadruplex DNA. The data set is described as follows: Binding affinity to wildtype Tel26 G4 DNA (5'-TTAGGGTTAGGGTTAGGGTTAGGGTT-3') (unknown origin) at 10:1 compound:DNA ratio incubated for 30 mins by ESI-MS analysis. Type of data set: nucleic-acid assay.
Data set [9] has as its system Quadruplex DNA. As to the kind of experiment: Binding affinity to Tel23 G4 DNA (unknown origin) in PBS at pH 7.1 at 1.5 mM by wLOGSY analysis. Format: nucleic-acid assay.

As for `OCCN1CCN(CC#Cc2c3ccccc3c(C#CCN3CCN(CCO)CC3)c3ccccc23)CC1`, the IC50 (as a rule, the concentration at which inhibition is half-maximal) in data set [1] is 5.2 µM; in data set [2], 2.5 µM; in data set [3], 6.21 µM; in data set [4] it was 1.91 µM; in data set [5], 3.22 µM; in [6], more than 10 µM. Besides, the IC50 at 24 h in [7] amounted to 1.07 µM. Besides, the outcome in data set [8] and in [9] was Active.
